# Patent publication US8551997B2, “Structural-based inhibitors of the glutathione binding site in aldose reductase, methods of screening therefor and methods of use” (The Board of Regents of the University of Texas System, priority 2004, dated 2013)
# What was measured:
# aldose reductase = aldose reductase (Homo sapiens, UniProt P15121); details: cited from earlier work
# RAW264.7 macrophages = assay: LPS- and lipid aldehyde-induced signaling in RAW264.7 macrophages; type: cell-based
# Description: At the indicated times, cells were harvested for measurement of HNE (FIG. 5A), protein-HNE adducts (FIG. 5B), NF-kB (FIG. 5C), and TNF-a and IL-6 (FIG. 5D) as described in the methods. Cells were growth arrested as described above or transfected with control or AR siRNA oligonucleotides, incubated with GS-HNE-ester, or GS-DHN-ester (1 mM), and harvested for determination of NF-kB (FIG. 5E), membrane-bound total PKC (FIG. 5F).
# To determine if GS-DHN serves as a cellular sensor of ROS-induced insults, its effects on phosphorylation events upstream of IKK/NF-κB activation in RAW264.7 macrophages was examined.
# Caco-2 cells [1] = assay: PGE2 assay in Caco-2 cells; type: cell-based, human; details: preincubation with inhibitor 30 min, BFGF or PDGF 24 h
# Description: (§1) Caco-2 cells were plated in 6 well plates at a density of 2×10^5 cells/well. After 24 hours, the medium was replaced with fresh medium containing 0.1% serum with or without, sorbinil (20 μM) followed by treatment with either 10 ng/ml BFGF or PDGF, for another 24 h. HT29 cells were plated in 6 well plate at a density of 2×10^5 cells/well. After 24 hours, medium was replaced with serum-free medium with or without, sorbinil or zopolrestat (20 μM) followed by treatment with either EGF (5 ng/ml) or BFGF (10 ng/ml) for another 24 h. The medium from each cell lines was collected from each well and analyzed for PGE2 by using an Enzyme Immuno Assay kit according to the manufacturer's instructions (Cayman Chemical Co., Inc.).
# (§2) Briefly, 50 μl of diluted standard/sample were pipetted into a pre-coated goat polyclonal anti-mouse IgG 96-well plate. Aliquots (50 μl) of a PGE2 monoclonal antibody and PGE2 acetylcholine esterase (AchE) conjugate, (PGE2 tracer) were added to each well and allowed to incubate at 4° C. for 24 h. After incubation, the wells were washed five times with wash buffer containing 0.05% Tween-20, followed by the addition of 200 μl of Ellman's reagent containing acetylthiocholine and 5,5′-dithio-bis-(2-nitrobenzoic acid). Samples were read after 60 min at 412 nm with an ELISA reader. In this procedure the intensity of yellow color, is proportional to the amount of PGE2 tracer bound to the well and is inversely proportional to the amount of free PGE2 present in the well during incubation.
# HT29 cells [2] = assay: PGE2 assay in HT29 cells; type: cell-based; details: inhibitor alone
# Description: as §1
# as §2, with “In this procedure the intensity of yellow color, is proportional to the amount of PGE2 tracer bound to the well and is inversely proportional to the amount of free PGE2 present in the well during incubation.” left out
# A549 xenografts = A549 xenografts in nude mice; type: in vivo, mouse
# Description: The levels of ROS in sections of A549 xenografts was determined using dihydroethidium (Het; Molecular Probes, Eugene, Oreg.). The Het dye gives red fluorescence when oxidized to EtBr in the presence of ROS such as O2. Serial sections ([…]) of para-formaldehyde fixed xenografts were deparafinized and rehydrated and incubated with Het dye (5 μM in PBS) for 30 min at 37° C. followed by acquisition of images using a fluorescence microscope 200× magnification.
# Nine mice (20 weeks old) were divided into three groups of three animals and were treated with PBS, scrambled AR siRNA, and AR-siRNA, respectively. All nine animals were injected with 2×10^6 A549 human lung carcinoma cell suspensions in 100 μl PBS s.c. Animals were examined daily for signs of tumor growth. Treatment was given two times (day 1 and day 14) when the tumor surface area approximately 45 mm^2 (day 25). Treatment consisted of 200 μg AR-siRNA in 100 μl PBS. Control groups were treated with 200 μg/100 μl scrambled siRNA or diluent (PBS) alone. For the determination of effect of AR inhibitor, animals were fed with zopolrestat (40 mg/kg body weight) in the diet. Tumors were measured in two dimensions using calipers.
# Serial sections ([…]) of para-formaldehyde fixed xenografts were deparafenized and rehydrated and incubated with peptide specific AR antibodies and developed using DakoCytomation LSAB+System-HRP kit. The intensity of staining was observed under light microscope with 200× magnification.
# The results obtained from in vitro studies were confirmed by in vivo nude mice model bearing human lung carcinoma A549 cells. A549 (2×10^6) cells were implanted s.c. and allowed to grow in nu/nu nude mice to ˜45 mm^2 over a period of 25 days. Animals were grouped into control and experimental groups. Control group were fed with regular diet and experimental group was fed with AR inhibitor, Zopolrestat (after 10 days dose increased from 20 mg to 40 mg/kg/body weight) for until end of the experiment. Tumor growth was measured every two days using calipers. The photographs of animals were taken at days 1, 14, and 37 (FIGS. 20A-20B).
# HT29 cells [3] = assay: HT29 cell proliferation, MTT assay; type: cell-based; details: inhibitor alone
# Description: HT29 cells were grown to confluence in McCoy's medium and harvested and plated 2,500 per well in a 96-well plate. Subconfluent cells were growth arrested in 0.1% FBS with or without AR inhibitor sorbinil or zopolrestat (20 μM). After 24 hours, EGF (5 ng/ml) or BFGF (10 ng/ml) was added to the medium and the cells were incubated for another 24 hours. Cells incubated with the AR inhibitors alone served as control. Cell viability was determined by an MTT assay.
# SW480 xenografts = system: SW480 xenografts; set-up: tumor progression: dose or concentration left out as unconfirmed
# Description: Nine 20-weeks-old athymic nu/nu nude mice were divided into three groups of 3 animals (Group 1: treated with PBS; Group 2: treated with scrambled siRNA and Group 3: treated with aldose-reductase siRNA). An aliquot of 2×10^6 SW480 human colon adenocarcinoma cell suspensions in 100 μl PBS was injected subcutaneously into one flank of each nu/nu nude mouse. Animals were examined daily for signs of tumor growth. Treatment was administered when the tumor surface area exceeded 45 mm^2, i.e., day 25. Treatment consisted of 200 mg aldose-reductase siRNA in 100 ml PBS administered intraperitoneally. Control groups were treated with 200 mg/100 ml scrambled siRNA, or diluent (PBS) alone. Mice were treated on days 1 and 14. Tumors were measured in two dimensions using calipers over 40 days.
# rat VSMC cells = assay: High glucose-induced TNF-a production in VSMC; type: cell-based; details: for high glucose-induced TNF-a secretion: preincubated 1 h, then 19.5 mM glucose, apocyanin 25 mM, calphostin C 0.2 mM, N-acetyl cysteine 10 mM, sorbinil or tolrestat 10 mM each, or AR antisense ablated
# Description: Growth-arrested VSMC in 5.5 mM glucose (NG) were preincubated for 1 h without or with apocyanin (25 mM), D609 (100 mM), calphostin C (0.2 mM), N-acetyl cysteine (10 mM) and NF-kB inhibitor (18 mM) (FIG. 4A) and without or with sorbinil or tolrestat (10 mM each) (FIG. 4B) followed by the addition of glucose (19.5 mM) and incubation for the indicated times. AR antisense ablated VSMC were incubated with HG for the indicated times (FIG. 4C).
# Growth-arrested VSMC in 5.5 mM glucose (NG) were preincubated for 1 h without or with apocyanin (25 mM), D609 (100 mM), calphostin C (0.2 mM), N-acetyl cysteine (10 mM) and NF-kB inhibitor (18 mM) respectively, followed by the addition of 19.5 mM glucose, after which the cells were incubated for 12 and 24 hrs.
# A549 cells [4] = assay: Western blot of Cox-2 and iNOS in A549 cells; type: cell-based, human; details: concentration dependent
# Description: (§3) To examine expression of any of Cox-1, Cox-2, phospho-PKC-2, GAPDH, E2F1, Cyclin D1, Cyclin E, and iNOS proteins, Western blot analyses were carried by known methods (15). Equal amounts of protein from cell extracts were subjected to 12% SDS-PAGE followed by transfer of proteins to nitrocellulose filters, probing with the indicated antibodies, and the antigen-antibody complex was detected by enhanced chemiluminescence (Pierce, Piscataway, N.J., USA).
# Caco-2 cells [5] = assay: Reactive oxygen species in Caco-2 cells (DCFH-DA); type: cell-based, human; details: 20 μM, FGF or PDGF 10 ng/ml 60 min
# Description: Caco-2 cells were plated in a 24-well plate at a density of 1.5×10^4 cells/well in DMEM and then serum-starved at 60-70% confluence in the absence and presence of 20 μM sorbinil or tolrestat for overnight in phenol red-free DMEM supplemented with 0.1% FBS. Cells were then pre-incubated for 30 min with the ROS-sensitive fluorophore 2′,7′-dichlorofluorescein diacetate (DCFH-DA), which is taken up and oxidized to the fluorescent dichlorofluorescein by intracellular ROS. After incubation with DCFH-DA, the cells were exposed to FGF or PDGF 10 ng/ml for 60 min and fluorescence was measured with a CytoFluorII fluorescence plate reader (PerSeptive Biosystems, Inc., Framingham, Mass.) at excitation of 485 nm and emission of 528 nm.
# A549 cells [6] = assay: Western blot of cell cycle regulatory proteins in A549 cells; type: cell-based, human; details: various concentrations
# Description: as §3
# A549 cells [7] = assay: A549 cell proliferation, MTT assay; type: cell-based; details: Homo sapiens, 24 hrs
# Description: A549 cells were grown to confluence in Ham's F12K medium containing 10% FBS and harvested, and plated at 5000 cells per well in a 96-well plate. After 24 hrs A549 cells were treated with or without AR inhibitor sorbinil or tolrestat with various concentrations for another 24 hrs. Cells incubated without AR inhibitors served as control. Cell viability was determined by and MTT assay.
# [8] = compared to control and scrambled siRNA
compound,measurement,setting,value
"N[C@@H](CCC(=O)N[C@@H](CSC(CC(=O)O)C(=O)O)C(=O)NCC(=O)O)C(=O)O (stereo partly drawn) [DCEG, S-(1,2-dicarboxyethyl) glutathione, γ-glutamyl-S-(1,2-dicarboxyethyl)cysteinylglycine]",inhibition of AR-catalyzed reaction of glutathionyl-propanal,aldose reductase,competitive inhibitor
same,inhibition of aldehyde reduction by aldose reductase,aldose reductase,competitive inhibitor
"glutathionyl-1,4-dihydroxynonene [GS-DHN]",increase of protein kinase C (PKC) activity after GS-DHN challenge,RAW264.7 macrophages; within 60 min,~2.5 fold
CC(=O)N[C@@H](CS)C(=O)O [N-acetylcysteine],growth factor-induced production of PGE2,Caco-2 cells [1],attenuated
"O=C(O)Cc1nn(Cc2nc3cc(C(F)(F)F)ccc3s2)c(=O)c2ccccc12 [zopolrestat, 3,4-dihydro-4-oxo-3-[[5-(trifluoromethyl)-2-benzothiazolyl]methyl]-1-phthalazineacetic acid]",constitutive levels of PGE2,HT29 cells [2],did not inhibit
same,normal weight gain of animals,A549 xenografts; zopolrestat in the diet,None of the treatments interfered
same,tumor progression,"A549 xenografts; zopolrestat in the diet, 20 mg to 40 mg/kg/body weight",completely arrested
same,HT29 cells proliferation,HT29 cells [3],did not cause any effect
AR-siRNA: AR-siRNA (5′-AATCGGTGTCTCCAACTTCAA-3′; SEQ ID NO: 1) synthesized by Dharmacon Research (chemistry not given here),tumor progression,"SW480 xenografts; intraperitoneally, days 1 and 14",completely arrested
same,normal weight gain of animals,"SW480 xenografts; mouse, in vivo",without interfering
same,ability of GS-DHN to activate NF-κB,RAW264.7 macrophages,had no effect
same,effects of HNE/GS-HNE on IKK-a/b phosphorylation and NF-kB translocation,RAW264.7 macrophages,significantly blunted
same,AR protein expression in xenograft sections,A549 xenografts; [8],significantly prevention
same,ROS production in xenograft sections (HEt red fluorescence),A549 xenografts; [8],significantly reduced
same,progression of tumor growth,A549 xenografts; i.p. 200 μg AR-siRNA in 100 μl PBS on days 1 and 14,inhibited completely
calphostin C,high glucose-induced TNF-a secretion,rat VSMC cells,markedly decreased
same,growth factor-induced production of PGE2,Caco-2 cells [1],attenuated
COc1ccc2c(C(=S)N(C)CC(=O)O)cccc2c1C(F)(F)F [tolrestat],Cox-2 and iNOS expression,A549 cells [4],inhibit
same,basal levels of TNF-a,"rat VSMC cells; media containing 5.5 mM glucose, mannitol, or 3-OMG",did not affect
same,high glucose-induced TNF-a secretion,rat VSMC cells,prevents
same,growth factor-induced increase in ROS,Caco-2 cells [5],inhibited
same,"E2F-1, Cyclin E and Cyclin D1 expression",A549 cells [6],significant inhibition
same,inhibition at 100 µM,A549 cells [7],> 75%
